These results are taken from patent US20090124619A1, “NOVEL COMPOUNDS” (priority 2005, published 2009).

Each structure is given as a SMILES string.

T2 sequence (Q9HBA0 whole entry): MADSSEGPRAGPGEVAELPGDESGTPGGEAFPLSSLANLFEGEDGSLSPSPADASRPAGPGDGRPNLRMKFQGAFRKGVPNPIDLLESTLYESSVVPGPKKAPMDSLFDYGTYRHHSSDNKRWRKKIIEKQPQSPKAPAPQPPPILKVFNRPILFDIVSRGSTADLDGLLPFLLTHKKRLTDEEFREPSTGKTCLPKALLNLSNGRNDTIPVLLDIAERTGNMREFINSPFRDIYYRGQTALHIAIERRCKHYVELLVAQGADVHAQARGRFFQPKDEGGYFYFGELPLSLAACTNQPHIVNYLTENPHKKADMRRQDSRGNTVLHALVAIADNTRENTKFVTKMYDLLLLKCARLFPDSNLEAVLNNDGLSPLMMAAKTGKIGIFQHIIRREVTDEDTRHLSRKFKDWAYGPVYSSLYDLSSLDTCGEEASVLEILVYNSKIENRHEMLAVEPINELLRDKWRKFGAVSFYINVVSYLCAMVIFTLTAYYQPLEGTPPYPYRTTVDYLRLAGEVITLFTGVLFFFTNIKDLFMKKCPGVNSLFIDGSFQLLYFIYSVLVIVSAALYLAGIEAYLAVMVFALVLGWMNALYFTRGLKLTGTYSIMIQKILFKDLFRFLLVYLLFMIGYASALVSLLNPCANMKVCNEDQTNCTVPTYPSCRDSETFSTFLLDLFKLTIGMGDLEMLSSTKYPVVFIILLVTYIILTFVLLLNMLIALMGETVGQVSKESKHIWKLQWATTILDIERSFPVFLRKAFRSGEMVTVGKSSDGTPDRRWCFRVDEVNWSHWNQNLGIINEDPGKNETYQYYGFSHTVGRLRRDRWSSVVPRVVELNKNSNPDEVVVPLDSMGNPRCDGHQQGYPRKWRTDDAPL

For one test, the target named is T1, TRPV4 channel receptors (Bos taurus, UniProt A0A8F4X677).
T1 construct: obtained using this method in bovine articular chondrocytes; endogenous in cells; host or cells: bovine articular chondrocytes (primary)
T1 sequence (A0A8F4X677 1-871): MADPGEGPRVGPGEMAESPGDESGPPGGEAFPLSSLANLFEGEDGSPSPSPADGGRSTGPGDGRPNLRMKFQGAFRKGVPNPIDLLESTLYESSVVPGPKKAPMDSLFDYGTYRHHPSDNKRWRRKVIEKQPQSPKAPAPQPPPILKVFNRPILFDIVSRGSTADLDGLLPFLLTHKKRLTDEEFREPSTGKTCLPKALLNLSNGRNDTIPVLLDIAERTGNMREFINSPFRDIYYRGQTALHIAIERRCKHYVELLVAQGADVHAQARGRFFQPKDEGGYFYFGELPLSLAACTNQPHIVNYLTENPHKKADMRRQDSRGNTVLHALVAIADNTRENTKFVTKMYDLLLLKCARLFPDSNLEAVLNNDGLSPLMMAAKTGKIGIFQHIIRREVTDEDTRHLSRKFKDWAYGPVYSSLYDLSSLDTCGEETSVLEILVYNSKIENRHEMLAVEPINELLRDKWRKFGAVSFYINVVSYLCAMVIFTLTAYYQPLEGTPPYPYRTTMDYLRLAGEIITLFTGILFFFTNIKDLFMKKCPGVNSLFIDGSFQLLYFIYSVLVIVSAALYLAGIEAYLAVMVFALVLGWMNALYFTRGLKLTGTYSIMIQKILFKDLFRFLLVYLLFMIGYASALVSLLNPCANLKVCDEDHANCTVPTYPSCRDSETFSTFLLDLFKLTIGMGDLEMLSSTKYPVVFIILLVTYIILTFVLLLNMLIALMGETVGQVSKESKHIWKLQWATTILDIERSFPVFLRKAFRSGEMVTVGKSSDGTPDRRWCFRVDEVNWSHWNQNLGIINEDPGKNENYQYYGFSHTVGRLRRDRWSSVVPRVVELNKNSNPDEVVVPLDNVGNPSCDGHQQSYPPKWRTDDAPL
As to the kind of experiment: Ca2+ influx, Fura-2 fluorescence on FlexStation in bovine articular chondrocytes. It counts as cell-based.
Details: not given
From the text: Ca^2+ influx mediated through TRPV4 channel receptors can be measured using articular chondrocytes from such species as, but not limited to, human, rat, canine, rabbit, monkey, and bovine, using standard techniques in the art such as, but not limited to, Fura-2 (Invitrogen/Molecular Probes, Eugene, Oreg.) fluorescence using a FlexStation (manufactured by Molecular Devices, Sunnyvale, Calif.). Table 1 lists biological data for several representative compounds obtained using this method in bovine articular chondrocytes.
(§1) All exemplary compounds of the present invention were assessed using at least one of the biological assays presented above. Compounds presented in the Examples had EC50 values of about 0.01 μM to 30 μM as measured by Flex Station using bovine articular chondrocytes and pEC50 values between about 5.0 to about 7.5 as measured by FLIPR assay using TRPV4 expressing HEK cells.
Turning to `CC[C@H](C)[C@H](NC(=O)c1cc2ccccc2s1)C(=O)NCC1CN(S(=O)(=O)c2ccccc2C#N)CCO1` (stereo partly drawn) [Example 18, N-((1S,2S)-1-{[({4-[(2-cyanophenyl)sulfonyl]-2-morpholinyl}methyl)amino]carbonyl}-2-methylbutyl)-1-benzothiophene-2-carboxamide], the EC50 is greater than 900 nM. The same measure, in the same setting: next, `CC(C)C[C@H](NC(=O)c1cc2ccccc2s1)C(=O)NC[C@@H]1CN(S(=O)(=O)c2ccccc2C#N)CCO1` [Example 21, N-((1S)-1-{[({(2R)-4-[(2-cyanophenyl)sulfonyl]-2-morpholinyl}methyl)amino]carbonyl}-3-methylbutyl)-1-benzothiophene-2-carboxamide]: 1 to 160 nM.

With `CC(C)C[C@H](NC(=O)c1cc2ccccc2s1)C(=O)NC[C@H]1CN(S(=O)(=O)c2ccccc2C#N)CCO1` [Example 24, N-((1S)-1-{[({(2S)-4-[(2-cyanophenyl)sulfonyl]-2-morpholinyl}methyl)amino]carbonyl}-3-methylbutyl)-1-benzothiophene-2-carboxamide], the EC50 is 160 to 900 nM.

Another test has as its target T2, TRPV4 (Homo sapiens, UniProt Q9HBA0).
T2 construct: expressed in transfected cells; host or cells: HEK cells
As to the kind of experiment: FLIPR assay using TRPV4 expressing HEK cells. It counts as cell-based. The note with it: FLIPR method; pEC50 = −log10(EC50 μM).
From the text: Other techniques used to measure TRPV4 channel receptor activation in chondrocytes include, but are not limited to: FLIPR assay, measuring a compound's capability to reduce the amount of ADAMTSs produced and/or released in response to a catabolic stimulus by a cell comprising a TRPV4 channel receptor; measuring a compound's capability to reduce the amount of MMPs produced and/or released in response to a catabolic stimulus by a cell comprising a TRPV4 channel receptor; measuring a compound's capability to effect the amount of nitric oxide (NO) produced in response to a catabolic stimulus by a cell comprising a TRPV4 channel receptor; and measuring a compound's capability to attenuate the inhibition of matrix synthesis in response to a catabolic stimulus by a cell comprising a TRPV4 channel receptor.
as §1
The molecule `CC(C)C[C@H](NC(=O)c1cc2ccccc2s1)C(=O)NCC1CN(S(=O)(=O)c2ccc(Cl)cc2Cl)CCO1` (stereo partly drawn) [Example 14, N-((1S)-1-{[({4-[(2,4-dichlorophenyl)sulfonyl]-2-morpholinyl}methyl)amino]carbonyl}-3-methylbutyl)-1-benzothiophene-2-carboxamide] gave an EC50 of no more than 0.1 µM. Same read-out and setting: with `CC(C)[C@H](NC(=O)CCC1CCCC1)C(=O)NCC1CN(S(=O)(=O)c2ccccc2C#N)CCO1` (stereo partly drawn) [Example 44, N1-({4-[(2-cyanophenyl)sulfonyl]-2-morpholinyl}methyl)-N2-(3-cyclopentylpropanoyl)-L-valinamide] the figure was 0.1 to 1.12 µM; with `O=C(CCC1CCCC1)N[C@H](C(=O)NCC1CN(S(=O)(=O)c2ccc(Cl)cc2Cl)CCO1)c1ccccc1` (stereo partly drawn) [Example 60, 3-cyclopentyl-N-{(1S)-2-[({4-[(2,4-dichlorophenyl)sulfonyl]-2-morpholinyl}methyl)amino]-2-oxo-1-phenylethyl}propanamide], 1.12 to 10 µM.

A word on the EC50: it is the concentration giving half of the maximal effect. A lower EC50 goes with higher potency in that assay.
